Results published in patent US20230302071A1, “ANTIDEPRESSANT COMPOSITION CONTAINING PLEUROTUS ERYNGII EXTRACT AS ACTIVE INGREDIENT” (KOREA UNIVERSITY RESEARCH AND BUSINESS FOUNDATION, priority 2020, published 2023).

Key:
[1] = test system: mice; assay: Forced swimming test (FST), immobility time; format: in vivo; settings: intraperitoneal, each sample 20 mg/kg, 30 minutes before test, 4-minute period, FIG. 5
Description: In order to verify whether the fractions of the Pleurotus eryngii extract according to the present invention actually have antidepressant efficacy, a forced swimming test was performed using experimental animals. The antidepressant efficacy was determined by measuring the immobility time during a forced swimming test, and the less the immobility time, the greater the antidepressant efficacy. To this end, mice were intraperitoneally injected with each of the ethanol extract of Pleurotus eryngii according to the present invention and the primary fraction and the secondary fraction of the ethanol extract, after which the immobility time during a forced swimming test was measured. Each sample was injected in an amount of 20 mg/kg into experimental mice. Also, a Prozac-administered group was used as a positive control. Four mice (n=4) were intraperitoneally injected with each sample and then allowed to stand for 30 minutes, after which the mice were submerged in water for 6 minutes and then washed for a while, water in the water tank was exchanged, and the mice were placed again in the water tank for 4 minutes to conduct this experiment. Statistical processing was performed by measuring the immobility time during the 4-minute experimental period.

[2] = test system: serotonin receptor-mediated signaling in AGS cell line; assay: Serotonin receptor-mediated signaling in AGS cell line by Western blotting (pErk, pJNK); format: cell-based, human; settings: FIG. 4
Description: Whether the fractions of the Pleurotus eryngii extract according to the present invention were involved in serotonin receptor-mediated signaling by treating an AGS cell line known to overexpress serotonin receptors with the fractions of the Pleurotus eryngii extract according to the present invention was evaluated using Western blotting. Here, an anti-pERK antibody, anti-Erk antibody, anti-pJNK antibody, anti-JNK antibody, and anti-α Tubulin antibody were used for western blotting.

In the case of CNCCC(Oc1ccc(C(F)(F)F)cc1)c1ccccc1 (stereo not drawn) [Prozac], the “reduction in immobility time compared to negative control” value [1] was 24%.
NCCc1c[nH]c2ccc(O)cc12 [serotonin] was tested, and the “expression of phosphorylated pErk” value [2] was “increased” and the “expression of phosphorylated pJNK” value [2] was “increased”.
